In patent US9265787B2, “Combined inhibition of the vitamin D receptor and DNA replication in the treatment of cancer” (Institute for Cancer Research, priority 2011, dated 2016):

Tests used:
Assay type in all cases: cell-based
[1] = system: BXPC3 cells; experiment: Clonogenic assay with VDR antagonist TEI-9647 and gemcitabine
Description: Note sensitization at 2 μM of TEI-9647. The average of 3 independent experiments is shown.
(§1) TEI-9647 alone killed cells, consistent with reduced clonogenic survival by VDR siRNA alone. Clonogenic assays were performed using several different doses of the inhibitor compound to compare clonogenic survival to assays described above using VDR siRNAs and shRNAs. The clonogenic assays were performed as described above. The TEI-9647 compound was added prior to gemcitabine addition, consistent with the timing of the siRNA treatments described above. Cells were treated with inhibitor for 48 hours followed by gemcitabine treatment for 48 hours and allowed to form colonies for 10-12 days. Survival was then quantified by staining and destaining of subsequent colonies with crystal violet and reading the resultant destain at wavelength 595 nm.

[2] = system: Panc1 cells; experiment: as above; conditions: data not shown
Description: as §1

[3] = system: BXPC3 cells; experiment: CellTiter-Glo viability assay with VDR short hairpin RNA and gemcitabine
[4] = system: Panc1 cells; experiment: as above
[5] = system: Panc1 cells; experiment: Immunofluorescence staining for DNA damage response proteins; conditions: gemcitabine-treated compared to vehicle treated cells
Source text: Immunofluorescence staining for DNA damage response proteins, TAO1, 53BP1, and γ-H2AX of gemcitabine treated Panc1 cells transfected with control or VDR siRNA.

[6] = system: BXPC3 cells stably expressing gfpH2B; experiment: Time-lapse microscopy of BXPC3 cells stably expressing gfpH2B (preliminary experiments); conditions: S phase by FACS
Source text: VDR is known to induce transcription of the Cdk inhibitor, p21, and this is one of the reasons used to explain the anti-proliferative activity of vitamin D. As p21 is also activated by DNA damage, it is possible that VDR contributes to the cell cycle checkpoint arrest induced by gemcitabine. This will be directly tested by time-lapse microscopy of synchronized cells after depletion of VDR and treatment with gemcitabine.

[7] = system: BXPC3shVDR cells; experiment: Drug survival of BXPC3 cells stably depleted of VDR (rescue experiments)
[8] = system: Panc1 cells; experiment: Clonogenic survival after siRNA transfection and 18 h gemcitabine; conditions: VDR siRNA-transfected Panc 1 cells, gemcitabine 18 hours, colonies after eight days
Description: (§2) Clonogenic survival of BXPC3 cells transfected with indicated siRNAs and treated with drug or vehicle. Plk1 siRNA is positive control for killing. […] Panc 1 cells transfected with VDR siRNA are also included.
(§3) Cells were transfected with siRNA, treated with gemcitabine for 18 hours, then seeded. Surviving colonies were quantitated eight days later.

[9] = system: BXPC3 cells; experiment: as above; conditions: VDR siRNA-transfected BXPC3 cells, gemcitabine 18 hours, colonies after eight days
Description: as §2, §3

[10] = system: Panc1 cells; experiment: Effect of the sublethal screening dose of gemcitabine (phospho-H2AX foci, cell cycle arrest); conditions: sublethal dose (IC20)
[11] = system: Panc1:gfpH2B cells; experiment: Time-lapse videomicroscopy of cell fates with siRNAs/drugs and gemcitabine
Source text: FIGS. 5A-5C show time lapse videomicroscopy tracking the fates of Panc1:gfpH2B cells treated with various combinations of siRNAs and drugs.
White arrows show mitotic cells in Chk1 depleted cells. Other rounded cells are apoptotic.
The fate of Panc1:gfpH2B cells treated with various combinations of siRNA and gemcitabine was tracked with time-lapse videomicroscopy (FIG. 5A). […] Cells were transfected with indicated siRNAs, and synchronized at the G1/S boundary. Time-lapse was started upon release from the G1/S block and continued for the next 48 hours. Select frames from the movies (0, 12, 24 and 48 hours) are shown.
A comparison of cells treated with gemcitabine in the presence and absence of UCN01, an inhibitor of the Chk1 DNA damage response kinase was carried out (FIG. 5A).
The percentage of cell death was quantified (FIG. 5C).
The mechanism of chemosensitization by inhibiting VDR was investigated, and it was determined that this mechanism is different from overriding the DNA damage checkpoint pathway through Chk1 inhibition (FIG. 6A). […] Chk1 was depleted by using siRNAs targeted to the Chk1 transcript from the Dharmacon smartPOOL siRNA library. The siRNAs included the sequence […] (SEQ ID NO:8), […] (SEQ ID NO:9), […] (SEQ ID NO:10), and […] (SEQ ID NO:11).
Loss of VDR promotes apoptosis of gemcitabine-treated cells through a different pathway than that which is used after Chk1 inhibition. […]

For `C=C1C[C@H](C[C@@H](C)[C@H]2CC[C@H]3/C(=C/C=C4/C[C@@H](O)C[C@H](O)C4=C)CCC[C@]23C)OC1=O` [TEI-9647], the “sensitization to gemcitabine (clonogenic survival)” value ([1]; TEI-9647 added prior to gemcitabine) was “sensitize both BXPC3 and Panc1 cells to gemcitabine”, the “TEI-9647 concentration at which sensitization is noted” value ([1]; with gemcitabine, average of 3 independent experiments) was 2 µM and the “effect of TEI-9647 alone on clonogenic survival” value ([1]; without gemcitabine) was “killed cells”. For the same molecule, the “sensitization to gemcitabine (clonogenic survival)” value [2] was “sensitize both BXPC3 and Panc1 cells to gemcitabine”.
In the case of “VDR shRNA: VDR short hairpin RNA (clone ID TRCN000019504), sequence CGAAGUGUUUGGCAAUGAGAU (SEQ ID NO: 7) (listed as Homo sapiens)”, the “sensitization to killing by gemcitabine (viability)” value [3] is reported as “sensitized both cell lines to killing by gemcitabine” and the “sensitization to killing by gemcitabine (viability)” value [4] is reported as “sensitized both cell lines to killing by gemcitabine”.
`Nc1ccn([C@@H]2O[C@H](CO)[C@@H](O)C2(F)F)c(=O)n1` [gemcitabine, Gemcitabine] was tested, and the “phospho-H2AX and 53BP1 staining in nuclei” value [5] was “increased”, the “duration of arrest in interphase after gemcitabine treatment” value [6] was “up to 48 hours” and the “survival of BXPC3shVDR cells carrying the C288G VDR mutant” value ([7]; 50 nM, compared to the same cells rescued by wild type VDR) was “killed”. For the same molecule, the “further reduction of survival by gemcitabine” value [8] was greater than 85%, the “further reduction of survival by gemcitabine” value [9] was greater than 85% and the “DNA damage and cell cycle arrest at the screening dose” value [10] was “sufficient to induce DNA damage”.
`CC(=O)O[C@H]1C(=O)[C@@]2(C)[C@H]([C@H](OC(=O)c3ccccc3)[C@]3(O)C[C@H](OC(=O)[C@H](O)[C@@H](NC(=O)c4ccccc4)c4ccccc4)C(C)=C1C3(C)C)[C@]1(OC(C)=O)CO[C@@H]1C[C@@H]2O` [taxol] was tested, and the “effect of VDR status on killing by taxol” value ([7]; two concentrations of taxol, BXPC3 parental, shVDR and rescued cells) was “did not affect killing”.
For `CN[C@@H]1C[C@H]2O[C@@](C)([C@@H]1OC)n1c3ccccc3c3c4c(c5c6ccccc6n2c5c31)C(=O)N[C@@H]4O` [UCN01], the “fate of gemcitabine-treated cells (mitotic entry, phase of death)” value ([11]; 48 hour time-lapse after release from G1/S block) was “promoted cells to first enter mitosis (arrows) which then caused cell death” and the “cell number at 48 hour versus 0 hour” value ([11]; gemcitabine-treated cells with UCN01, phase contrast images) was “reduced cell number”.
